What was measured:
[1] = test system: microRNA-122; experiment: De-repression of downstream mRNAs of microRNA-122 in mouse liver by CRN-containing antimir; type: in vivo, mouse (BALB/c)
Excerpt: The CRN-containing antimir CRN-Antimir-122-8a was synthesized by the methods of this invention. MicroRNA-122 is an miRNA shown to be liver-specific and involved in lipid metabolism and possibly hepatitis C virus replication. MicroRNA-122 regulates various downstream mRNAs. CRN-Antimir-122-8a is 16-mer oligonucleotide complementary to the 5′ end of microRNA-122 that can silence microRNA-122 and de-repress its downstream targets.
Liver and spleen were harvested.
The end points determined were expression of downstream genes AldoA (Aldolase A), P4H4 (Prolyl 4-hydroxylase gene), and SLC7A1 (Solute carrier family 7). Negative control was a mismatched Antimir-122 sequence.

[2] = Tolerability in mice: body weight, clinical signs, spleen weight, serum chemistry; details: BALB/c mice
Experimental: Treatment groups (n=5) were injected intravenously at a 10 mg/kg dose with a dosing schedule of Q1d×3 (every day for three consecutive days). Necropsy was performed at 24 h after the last dose. Body weights and clinical signs were monitored during the course of the study. Liver and spleen were harvested.

[3] = 8-week old BALB/c mice, 10 mg/kg intravenously Q1d×3, necropsy 24 h after last dose

crnm5CsdCsdAscrnTscrnTsdGscrnTscrnm5CsdAscrnm5CsdAsdCsdTscrnm5Cscrnm5CsdA (antisense CCATTGTCACACTCCA; CRN nucleotides, phosphorothioate linkages; (1)..(16) Phosphorothioate linkage between nucleotides; modified_base (1)..(1) Conformationally restricted 5′-methyl nucleomonomer; modified_base (2)..(3) deoxy-nucleotide; modified_base (4)..(5) Conformationally restricted nucleomonomer; modified_base (6)..(6) deoxy-nucleotide; modified_base (7)..(7) Conformationally restricted nucleomonomer; modified_base (8)..(8) Conformationally restricted 5′-) [CRN-Antimir-122-8a]
de-repression in liver AldoA mRNA relative to buffer control [1, 3]: Up to 2.5 fold
de-repression in liver P4H4 mRNA relative to buffer control [1, 3]: Up to 1.5 fold
de-repression in liver SLC7A1 mRNA relative to buffer control [1, 3]: Up to 1.3 fold
de-repression of downstream genes ALDOA, SLC7A, P4H4 in the mouse model ([1]; mouse model, result in words): demonstrated de-repression
alterations in liver and kidney enzymes ([2]; 10 mg/kg intravenously Q1d×3): No alterations
body weight loss after dosing ([2]; 10 mg/kg intravenously Q1d×3): No body weight loss
other serum chemistry parameters ([2]; 10 mg/kg intravenously Q1d×3): within expected normal levels
tolerability ([2]; 10 mg/kg intravenously Q1d×3): well tolerated
spleen weights relative to buffer control ([2]; 10 mg/kg intravenously Q1d×3, necropsy 24 h after last dose): unaltered

From patent US9751909B2, “Synthesis and uses of nucleic acid compounds with conformationally restricted monomers” (Marina Biotech, Inc., priority 2011, dated 2017)
